Experimental findings from a melting point compilation (Tetko et al.; mined from patent text by program, amines drawn as free bases though some values may be those of a salt) are described below.

Each structure is given as a SMILES string.

In general, melting point refers to the temperature, or range, at which the solid turns liquid. `COc1ccc2cc(CC[Si](C)(C)C)c(=O)oc2c1`: the melting point lay in the range of 130 to 132 °C.

`C=CCC(N)(Cc1ccccc1)C(N)=O` (centres undefined) registered a melting point of 120 to 121 °C.

Regarding `CCC(=CC(CSc1nccn1C)=NO)C(C)[N+](=O)[O-]` (centres undefined), the melting point lay in the range of 91 to 93 °C.

As for `CC(=O)N[C@@H]1CCN(S(=O)(=O)c2ccc(Cl)c(CBr)c2Cl)C1`, the melting point worked out at 222 °C.

In turn, `CCn1c(N)c(C(N)=O)c(=O)c2cnc(Nc3ccc(NCC(=O)C4CC4)cc3)nc21` came in with a melting point of 248 °C.

Take `C[C@H](NC(=O)COCCNC(=O)C12CC3CC(CC(C3)C1)C2)C(=O)N[C@H](CCC(=O)OCc1ccccc1)C(N)=O`: the melting point is 57 to 64 °C.

In the case of `CC(CN1CCn2c(c(-c3ccccc3)c3cc(Cl)ccc32)C1=O)N(C)C` (centres undefined), the melting point was in the range of 151 to 152 °C.

In the case of `CCOC(=O)CNC(=S)Cc1cnc(C)c(O)c1CO`, the melting point is 147 to 149 °C.

`CC(C)(C)OC(=O)NCC(=O)OCCCNc1cccc2c1C(=O)c1ccccc1C2=O` registered a melting point of 84 °C.

Regarding `CCCCn1c(CC)ccc1C(=O)c1cccc(N)c1`, the melting point lay within 71 to 77 °C.

Take `CCOC(=O)C1=C(Nc2ccc(C(=O)OCC)cc2)OCC1=O`: the melting point lay within 152 to 153 °C.

Molecule `COc1cc(C)nc2c(OCc3c(Cl)ccc(NC(=O)CN4C(=O)c5ccccc5C4=O)c3Cl)cccc12` returned a melting point of 184 to 185 °C.

`C#CCn1c(-c2ccccc2)nn(C(C)(C)C)c1=O` registered a melting point of 82 to 83 °C.

Consider `CCOC(=O)C1CCCCN1C(=O)[C@H](CCCNC(=N)N)NS(=O)(=O)c1ccc2cc(OC)ccc2c1` (some centres undefined), for which the melting point was 192 to 193 °C.

As for `S=c1cc(Oc2c(Cl)cccc2Cl)c2cc(Cl)ccc2s1`, the melting point was 208 to 210 °C.

`COc1ccc(-c2ccc3cnc(Nc4ccc(C5CCN(CC(N)=O)CC5)cc4)nn23)cn1` came in with a melting point of 217 °C.

For the molecule `CCCCCCCCCCCCCc1nnc(C=Cc2ncc([N+](=O)[O-])n2C)s1`, the melting point turned out to be 91 °C.

`CCCc1nc2c(N)nc3cc(OCc4ccoc4)ccc3c2s1` showed a melting point of 170 to 171 °C.

Regarding `Cn1c2c(c3ccc(F)cc31)C(=O)CCC2`, the melting point was 174 to 175 °C.

`CCC(=O)O[C@@H]1OCC[C@@H]1NC(=O)[C@@H](NS(=O)(=O)c1cccc2ccccc12)[C@@H](C)CC` came in with a melting point of 157 to 159 °C.

In turn, `O=C(CC1=C(n2nc(-c3c(-c4ccccc4)nn4ccccc34)ccc2=O)CCCC1)N1CCCCC1` displayed a melting point of 184 to 185 °C.

As to `O=Cc1c[nH]c2c1ccc1c3cccc(Br)c3[nH]c12`, the melting point is over 250 °C.

As for `COc1ccc(CCN2CCN(c3cccccc3=O)CC2)cc1OC`, the melting point is 83 to 85 °C.

Regarding `COc1ccc(C(C#Cc2ccccc2)CC(=O)Nc2nccs2)cc1OC1CCCC1` (racemic), the melting point lay in the range of 142 to 144 °C.

`CCOCc1nc2c(N)nc3cc(N4CCN(CC)C4=O)ccc3c2n1CC(C)(C)O` gave a melting point of 210 to 212 °C.

Turning to `CCN1CN(c2cccc(F)c2)c2ncccc2C1=O`, the melting point lay within 123 to 124 °C.

The molecule `CCCc1ccc(S(=O)(=O)Nc2ccc3nc(C)ccc3c2)cc1` registered a melting point of 174 °C.

As for `Cc1cc(C)c2c(c1C)OC(C)(C)C2=O`, the melting point was in the range of 99 to 101 °C.

`O=C(O)Cn1c(=O)c(=O)[nH]c2cc(Br)c(Br)cc21` had a melting point of over 300 °C.

`CCc1ccc(C(O)CNC(=C[N+](=O)[O-])NCCSCc2cc(C)c(CN(C)C)s2)cc1` (centres undefined): the melting point was in the range of 112 to 115 °C.

For the molecule `BrCc1cccc2c(-c3ccccc3)onc12`, the melting point was 125 to 126 °C.

In turn, `COc1ccccc1N1CCN(CC(O)COc2cc(C)c(O)c(C)c2C)CC1` (centres undefined) registered a melting point of 163 to 165 °C.

In turn, `Clc1ccc(C2=NOCCS2)s1` displayed a melting point of 74 to 77 °C.

With `CCCCN(CCCC)C(=O)Cc1ccccc1Nc1c(Cl)cccc1Cl`, the melting point is 66 to 68 °C.

For `NC(N)=Nc1nc(-c2ccc(CNC(=O)c3ccco3)o2)cs1`, the melting point is 246 °C.

`CCOC(=O)c1cc2cc(Oc3ccc(S(C)(=O)=O)nc3)cc(CC)c2[nH]1` displayed a melting point of 140 to 141 °C.

In turn, `CCCC[C@H](NC(=O)[C@H](CC(C)C)NC(=O)c1cc(F)c(F)c(F)c1F)C(=O)CSCc1ccco1` had a melting point of 107 to 108 °C.

With `O=C(N[C@H](Cc1ccc(C(F)(F)F)cc1)[C@@H](O)c1cccc2ccccc12)c1ccc(F)c2ccccc12` (racemic), the melting point lay in the range of 195 to 196 °C.

`NCCCCNC(=O)COc1ccc2ccccc2c1`: the melting point was 58 °C.

In turn, `O=Cc1ccc(O)c(CP(=O)(O)O)c1` displayed a melting point of 252 to 253 °C.

Molecule `O=C(c1ccc(F)cc1F)N1CCc2cc(S(=O)(=O)N3CC(c4ccccc4)NC3=O)ccc21` (centres undefined) displayed a melting point of 128 °C.

Consider `Clc1ccccc1Oc1cnccc1N1CCNCC1`, for which the melting point was 99 to 101 °C.

On to `COc1cc(COC(C)=O)c(COC(C)=O)cc1OCCCl`, for which the melting point lay within 79 to 80 °C.

`COCc1ccn2c(C)c(CCc3ccc4nc(N)oc4c3)nc2c1` showed a melting point of 206 to 207 °C.

For the molecule `Cc1ccc(C)c(OCCC(O)C(C)(C)C(=O)O)c1` (centres undefined), the melting point came to 100 °C.

In turn, `COc1cc(C=C(C(C)=O)C(C)=O)ccc1O` showed a melting point of 135 to 137 °C.

For `COC(=O)c1ccc2c(c1)[C@@H](N1CCCC1=O)[C@H](O)C(C)(C)O2` (relative stereo), the melting point was in the range of 190 to 192 °C.

`CC(=O)N(C)Cc1cc2c(-c3ccccc3)c(CC(=O)Nc3ccc(Cl)cc3C(F)(F)F)c(=O)oc2cc1Cl` gave a melting point of 199 to 201 °C.

Consider `FC(F)=C(F)CCSc1nc(-c2ccc(Cl)cc2)no1`, for which the melting point was in the range of 49 to 52 °C.

The molecule `O=C(O)c1nc2ccccc2nc1Cl` gave a melting point of 133 to 139 °C.

With `Cc1ccc(C(=O)C2=C(O)C(=O)N(c3ccc(C)nn3)C2c2ccc(OC(F)(F)F)cc2)cc1` (centres undefined), the melting point was 215 °C.

Molecule `COC(C)n1cc(C2=C(c3cn(C(C)OC)c4ccccc34)C(=O)NC2=O)c2ccccc21` (centres undefined) displayed a melting point of 222 to 224 °C.

`COc1ccc([C@@H]2Sc3cc(Oc4ccc(F)cc4)ccc3NC(=O)[C@@H]2O)cc1F` came in with a melting point of 222 to 224 °C.

As to `CN(C)CCCN1N=C2C(=Cc3ccccc3)CSCC2C1c1ccccc1` (centres undefined), the melting point fell in the range of 83 to 85 °C.

Take `Cn1ncc2c1CSc1cn[nH]c1-2`: the melting point was 224 to 226 °C.

As for `Cc1ccc2c(c1)C(C)(C)[C@@H](C)[C@H](C)C2(C)C` (relative stereo), the melting point is 65 to 66 °C.

For the molecule `O=C(O)c1scc(Cl)c1C(=O)Nc1ccccc1`, the melting point was 208 to 210 °C.

The molecule `CCN1C(=O)CC[C@@H]2c3ccc(Cl)cc3CC[C@H]21` came in with a melting point of 108 to 110 °C.

Regarding `CS(=O)(=O)c1cccc(-c2ccccc2[N+](=O)[O-])c1`, the melting point was 124 to 125 °C.

The molecule `O=C(O)c1cc(=O)c2c(OCC(O)COc3ccccc3)cccc2o1` (centres undefined) gave a melting point of 88 to 90 °C.

Molecule `COc1c2c(c(OC)c(OC)c1OC)CC(CCCCOc1ccc(C(=O)N(C)C)cc1)C2` showed a melting point of 99 to 102 °C.

The molecule `CCC(=O)c1c(C#N)nn(-c2c(Cl)cc(C(F)(F)F)cc2Cl)c1N` came in with a melting point of 167 to 169 °C.

The molecule `Cc1ccc(C#N)c(C)c1COC(=O)[C@H]1[C@@H](C=C(Cl)C(F)(F)F)C1(C)C` (relative stereo) yielded a melting point of 98 °C.

In turn, `Cc1[nH]cnc1CCc1ccc2nc(N)sc2c1` came in with a melting point of 191 to 193 °C.

`[N-]=[N+]=NC1CC(n2ccc(N)nc2=O)OC1CO` (centres undefined) gave a melting point of 174 to 176 °C.

Turning to `Cc1c(C)c2c(c3c1NCC3)CC(C)(C)O2`, the melting point was in the range of 107 to 109 °C.

`c1cnc2ccc(Cn3nnc4ccc(-c5ccc6[nH]ccc6c5)nc43)cc2c1` returned a melting point of 120 to 122 °C.

Consider `CCOc1ccc(N=c2ccn3ccccc3c2)cc1`, for which the melting point was in the range of 157 to 159 °C.

`O=C1C(Cc2ccc(Br)cc2)=C(C(F)F)C(=O)c2ccccc21`: the melting point lay within 103 to 104 °C.

In turn, `CC1=CC(OC(=O)c2ccccc2)C(O)C(C)(C)CC1=O` (centres undefined) returned a melting point of 91 to 92 °C.

As for `O=[N+]([O-])c1ccc2[nH]c(C(F)(F)F)cc2c1`, the melting point was 190 to 193 °C.

With `CCCn1c(=O)c2[nH]c(/C=C/c3cc(OC)c(OC)c(OC)c3)nc2n(CCC)c1=O`, the melting point was in the range of 162 to 163 °C.

Molecule `CCC(CC)Nc1c(NCc2ccc(Cl)cc2Cl)c(=O)c1=O` showed a melting point of 210 to 211 °C.

As to `Fc1ccc(Nc2nc(Cl)nc(NN=Cc3ccc(OC(F)(F)F)cc3)n2)cc1C(F)(F)F`, the melting point was in the range of 109 to 111 °C.

Turning to `COC(=O)c1sc2ccccc2c1N=CN(C)C`, the melting point was 73 to 74 °C.

As for `CC1=C(C(=O)OCCCO[N+](=O)[O-])C(c2cccc([N+](=O)[O-])c2)C(C(=O)OCCNC(=O)c2ccccn2)=C(C)N1` (centres undefined), the melting point fell in the range of 146 to 148 °C.

With `CC(C)(C)OC(=O)C=Cc1ccc(O)cc1C=NO`, the melting point lay in the range of 146 to 149 °C.

The molecule `O=C(Nc1ccc(-n2nc(C(F)(F)F)cc2C2CC2)cc1)c1cccc(F)c1F` came in with a melting point of 147 to 152 °C.

Turning to `COCCc1cnc(Cl)nc1`, the melting point lay in the range of 25 to 26 °C.

Regarding `CCOC(=O)Oc1c(OC)cc(Cl)c2c1CN1CCc3cc(OC)c(OCc4ccccc4)cc3C1C2` (centres undefined), the melting point came to 128 °C.

As to `COC1OCC[C@@H]1N(C(=O)CNC(=O)COc1ccc2c(c1)Nc1ccccc1S2)[C@@H](Cc1ccccc1)C(N)=O` (some centres undefined), the melting point is 203 to 204 °C.

`CC#CCOc1ccc(OCCC(=O)O)cc1` yielded a melting point of 88 to 92 °C.

On to `N#Cc1c(N2CCCC2)cc(-c2ccccc2)c2c1-c1ccccc1C2=O`, for which the melting point lay in the range of 202 to 204 °C.

For `Clc1ccc(C=NOCC2CO2)cc1` (centres undefined), the melting point is 69 to 70 °C.

Take `CC(F)(F)c1ccc2c(c1)C=C(C(=O)O)C(C(F)(F)F)O2` (centres undefined): the melting point lay in the range of 156 to 158 °C.

For the molecule `CCOC(=O)c1ccc(/C=C(\C)c2ccc3c(c2)C(C)(C)CCN3C)cc1`, the melting point lay within 100 to 101 °C.

The molecule `N#CC[C@H](O)Cc1cc2ccccc2[nH]1` returned a melting point of 92 to 93 °C.

`COc1ccc(C2(C)C=C(Cl)N=CN2)cc1` (centres undefined) had a melting point of 65 to 67 °C.

The molecule `Cc1oc(-c2ccccc2)nc1COc1cc(CCl)on1` yielded a melting point of 105 to 106 °C.
